{
  "source": "patent US6046209A",
  "about": "(priority 1998, dated 2000)",
  "key": {"L1210": {"test_system": "L1210", "assay": "Efficacy in mouse tumor model L1210", "format": "in vivo", "procedure": "(§1) The efficacy of the compounds of the present invention was also tested in vivo using three well-known mouse tumor models: L1210, Lewis Lung, and Colon Carcinoma 26."}, "Colon Carcinoma 26": {"test_system": "Colon Carcinoma 26", "assay": "Efficacy in mouse tumor model Colon Carcinoma 26", "format": "in vivo", "procedure": "as §1"}, "[1]": {"test_system": "topoisomerase I; mouse tumor models", "assay": "Overall comparison of topoisomerase I inhibition ability, cytotoxicity and efficacy in mouse tumor models", "conditions": "results of Table I"}, "Lewis Lung": {"test_system": "Lewis Lung", "assay": "Efficacy in mouse tumor model Lewis Lung", "format": "in vivo", "procedure": "as §1"}, "[2]": {"test_system": "solid tumor cancers, particularly ovarian cancer and non-small cell lung carcinoma", "conditions": "humans; cited from earlier work"}, "topoisomerase II": {"test_system": "topoisomerase II", "conditions": "cited from earlier work"}, "[3]": {"conditions": "in vivo; cited from earlier work"}},
  "data": [
    {"molecule": "CC[C@@]1(O)C(=O)OCc2c1cc1n(c2=O)Cc2cc3ccccc3nc2-1", "note": "[Camptothecin]", "values": [
      {"measurement": "% Inc. in Lifespan, L1210", "setting": "L1210; 12 mg/kg ip", "result": 133, "unit": "%"},
      {"measurement": "% Inc. in Lifespan, Colon 26", "setting": "Colon Carcinoma 26; 4 mg/kg ip", "result": 50, "unit": "%"}
    ]},
    {"molecule": "CC[C@@]1(O)C(=O)OCc2c1cc1n(c2=O)Cc2cc3c4c(ccc3nc2-1)OC(CN1CCOCC1)C4", "note": "(stereo partly drawn) [Formula III, (8S)-8-ethyl-1,2-dihydro-8-hydroxy-2(4-morpholinylmethyl)-11H-furano[3,2-f]-pyrano[3',4':6,7]indolizino[1,2-b]quinoline-9,12(8H,14H)-dione]", "values": [
      {"measurement": "biological activity compared with camptothecin and topotecan", "setting": "[1]", "result": "comparable to camptothecin and topotecan"},
      {"measurement": "% Inc. in Lifespan, L1210", "setting": "L1210; 42 mg/kg ip", "result": 350, "unit": "%"},
      {"measurement": "% Inc. in Lifespan, Lewis Lung", "setting": "Lewis Lung; 22 mg/kg ip", "result": "> 225", "unit": "%"},
      {"measurement": "% Inc. in Lifespan, Colon 26", "setting": "Colon Carcinoma 26; 20 mg/kg sc", "result": 45, "unit": "%"}
    ]},
    {"molecule": "CC[C@@]1(O)C(=O)OCc2c1cc1n(c2=O)Cc2cc3c4c(ccc3nc2-1)OC(CN(C)C)C4", "note": "(stereo partly drawn) [Formula IV, (8S)-2-[(dimethylamino)methyl]-8-ethyl-1,2-dihydro-8-hydroxy-11H-furano[3,2-f]-pyrano[3',4':6,7]indolizino[1,2-b]quinoline-9,12(8H,14H)-dione]", "values": [
      {"measurement": "biological activity compared with camptothecin and topotecan", "setting": "[1]", "result": "comparable to camptothecin and topotecan"},
      {"measurement": "% Inc. in Lifespan, L1210", "setting": "L1210; 15 mg/kg ip", "result": 225, "unit": "%"},
      {"measurement": "% Inc. in Lifespan, Lewis Lung", "setting": "Lewis Lung; 9 mg/kg ip", "result": 67, "unit": "%"},
      {"measurement": "% Inc. in Lifespan, Colon 26", "setting": "Colon Carcinoma 26; 20 mg/kg sc", "result": 32, "unit": "%"}
    ]},
    {"molecule": "CC[C@@]1(O)C(=O)OCc2c1cc1n(c2=O)Cc2cc3c(CN(C)C)c(O)ccc3nc2-1", "note": "[Topotecan, 9-dimethylaminomethyl-10-hydroxycamptothecin]", "values": [
      {"measurement": "% Inc. in Lifespan, L1210", "setting": "L1210; 15 mg/kg ip", "result": 217, "unit": "%"},
      {"measurement": "% Inc. in Lifespan, Lewis Lung", "setting": "Lewis Lung; 15 mg/kg ip", "result": 106, "unit": "%"},
      {"measurement": "efficacy in clinical tests", "setting": "[2]", "result": "efficacy against several solid tumor cancers, particularly ovarian cancer and non-small cell lung carcinoma"},
      {"measurement": "% Inc. in Lifespan, Colon 26", "setting": "Colon Carcinoma 26; 20 mg/kg sc", "result": 45, "unit": "%"}
    ]},
    {"molecule": "COc1cccc2c1C(=O)c1c(O)c3c(c(O)c1C2=O)C[C@@](O)(C(=O)CO)C[C@@H]3O[C@H]1C[C@H](N)[C@H](O)[C@H](C)O1", "note": "[doxorubicin]", "values": [
      {"measurement": "effect on topoisomerase II", "setting": "topoisomerase II", "result": "Inhibition of topoisomerase II"}
    ]},
    {"molecule": "COc1cc([C@@H]2c3cc4c(cc3[C@@H](O[C@@H]3O[C@@H]5CO[C@@H](C)O[C@H]5[C@H](O)[C@H]3O)[C@H]3COC(=O)[C@H]23)OCO4)cc(OC)c1O", "note": "[etoposide]", "values": [
      {"measurement": "effect on topoisomerase II", "setting": "topoisomerase II", "result": "Inhibition of topoisomerase II"}
    ]},
    {"molecule": "O=C1c2c(O)ccc(O)c2C(=O)c2c(NCCNCCO)ccc(NCCNCCO)c21", "note": "[mitoxantrone]", "values": [
      {"measurement": "effect on topoisomerase II", "setting": "topoisomerase II", "result": "Inhibition of topoisomerase II"}
    ]},
    {"molecule": "(S)-10-amino-4-ethyl-4-hydroxy-1H-pyrano[3',4':6,7]indolizino[1,2-b]quinoline-3,14(4H,12H)-dione [CPT-11]", "values": [
      {"measurement": "toxicity profile", "setting": "[3]", "result": "adverse toxicity profile"}
    ]}
  ]
}
